Calls of active or inactive are those of the source. The calls are words filed in the database; no cut-off is given here.
Columns and labels:
Cell membrane [1] = assay: Induction of cytoplasmic membrane depolarization in Vancomycin-resistant Enterococci assessed as increase in fluorescence intensity at 10 uM measured for 35 to 40 mins by DiSC3(5) dye based fluorescence analysis; type: subcellular; conditions: Enterococcus, time 35-40 min
Staphylococcus aureus [2] = assay: Antibacterial activity against Methicillin-resistant Staphylococcus aureus ATCC 33591 assessed as inhibition of bacterial growth incubated for 18 to 24 hrs in presence of 50% human plasma by CLSI microbroth dilution method; type: functional; conditions: time 18-24 hrs
Staphylococcus aureus [3] = assay: Antibacterial activity against Methicillin-resistant Staphylococcus aureus ATCC 33591 assessed as inhibition of bacterial growth preincubated compound with teichoic-acid for 1 hr followed by incubation with bacterial culture for 18 to 24 hrs by CLSI microbroth dilution method; type: functional; conditions: time 19-25 hrs
[4] = Induction of hemolysis in human erythrocytes at 250 uM incubated for 1 hr by microtiter plater reader analysis; type: toxicity, cell-based, Erythrocyte; conditions: read-out: Activity
[5] = Toxicity in BALB/c mouse assessed as animal's survival rate at 55.5 mg/kg, ip measured for 14 days; type: organism-based; conditions: in vivo, time 14 day
[6] = Induction of hemolysis in human erythrocytes incubated for 1 hr by microtiter plater reader analysis; type: toxicity, cell-based, Erythrocyte
Staphylococcus aureus [7] = assay: Antibacterial activity against Methicillin-resistant Staphylococcus aureus ATCC 33591 persister cells assessed as log reduction in bacterial colonies at 4.5 uM incubated for 12 hrs in broth solution followed by incubation on agar plate for 48 hrs by spot plating method; type: functional; conditions: time 60 hrs
Staphylococcus aureus [8] = assay: Antibacterial activity against Methicillin-resistant Staphylococcus aureus ATCC 33591 persister cells assessed as log reduction in bacterial colonies at 4.5 uM incubated for 24 hrs in broth solution followed by incubation on agar plate for 48 hrs by spot plating method; type: functional; conditions: time 72 hrs
Cell membrane [9] = assay: Induction of cytoplasmic membrane permeabilization in Vancomycin-resistant Enterococci assessed as increase in fluorescence intensity at 10 uM measured for 30 to 40 mins by Propidium iodide staining based fluorescence analysis; type: subcellular; conditions: Enterococcus, time 30-40 min
[10] = target: T1, Septum site-determining protein MinD (Bacillus subtilis (strain 168)) (UniProt Q01464); assay: Delocalization of GFP tagged-MinD in Bacillus subtilis 168 at MIC incubated for 15 mins by fluorescence microscopy
T1 sequence (whole entry): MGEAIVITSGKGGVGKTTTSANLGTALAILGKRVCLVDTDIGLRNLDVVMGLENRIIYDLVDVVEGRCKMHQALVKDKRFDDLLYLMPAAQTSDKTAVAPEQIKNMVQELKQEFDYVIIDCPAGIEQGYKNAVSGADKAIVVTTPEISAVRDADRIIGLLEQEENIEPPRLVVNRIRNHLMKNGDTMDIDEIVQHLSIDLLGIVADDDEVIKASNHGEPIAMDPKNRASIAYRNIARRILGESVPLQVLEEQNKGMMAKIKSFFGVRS

Staphylococcus aureus [11] = assay: Antibacterial activity against stationary phase of Methicillin-resistant Staphylococcus aureus ATCC 33591 assessed as log reduction in bacterial colonies at 22 uM incubated for 24 hrs in broth solution followed by incubation on agar plate for 48 hrs by spot plating method; type: functional; conditions: time 72 hrs
[12] = Renal toxicity in mouse assessed as blood urea nitrogen level at 12 mg/kg, ip measured after 48 hrs; type: organism-based; conditions: in vivo
Staphylococcus aureus [13] = assay: Antibacterial activity against stationary phase of Methicillin-resistant Staphylococcus aureus ATCC 33591 assessed as log reduction in bacterial colonies at 4.5 uM incubated for 24 hrs in broth solution followed by incubation on agar plate for 48 hrs by spot plating method; type: functional; conditions: time 72 hrs
Staphylococcus aureus [14] = assay: Antibacterial activity against Methicillin-resistant Staphylococcus aureus ATCC 33591 assessed as inhibition of bacterial growth incubated for 18 to 24 hrs by CLSI microbroth dilution method; type: functional; conditions: time 18-24 hrs
[15] = Hepatotoxicity in mouse assessed as plasma ALT level at 12 mg/kg, ip measured after 48 hrs; type: toxicity, organism-based; conditions: in vivo
[16] = Renal toxicity in mouse assessed as plasma creatinine level at 12 mg/kg, ip measured after 48 hrs; type: organism-based; conditions: in vivo
Bacillus subtilis = assay: Inhibition of cell wall biosynthesis in Bacillus subtilis 168 assessed as bubble-like formation on bacterial cell surface at PEC incubated for 15 mins by light microscopic analysis; type: functional, organism-based
Cell membrane [17] = assay: Induction of Cytoplasmic membrane disruption in Bacillus subtilis 168 assessed as proportion of PI-stained cells at PEC incubated for 10 mins by SYTO9/PI staining based fluorescence microscopy; type: subcellular
Staphylococcus aureus [18] = assay: Antibacterial activity against Methicillin-resistant Staphylococcus aureus ATCC 33591 assessed as log reduction in bacterial colonies at 10XMIC incubated for 1 hr in broth solution followed by plating on nutrient agar plate; type: functional
Staphylococcus aureus [19] = assay: Potency index, ratio of Vancomycin MIC to test compound MIC for antibacterial activity against Vancomycin-resistant Staphylococcus aureus 12; type: functional
Enterococcus [20] = assay: Potency index, ratio of Vancomycin MIC to test compound MIC for antibacterial activity against Vancomycin-resistant Enterococci ATCC 51559; type: functional
Enterococcus [21] = assay: Antibacterial activity against Vancomycin-resistant Enterococci ATCC 51575 assessed as inhibition of bacterial growth incubated for 18 to 24 hrs by CLSI microbroth dilution method; type: functional; conditions: time 18-24 hrs
Staphylococcus aureus [22] = assay: Bactericidal activity against methicillin-resistant Staphylococcus aureus ATCC 33591 assessed as log reduction in bacterial colonies incubated for 4 hrs in broth solution followed by culturing for 24 hrs on agar plate by spot plating method; type: functional; conditions: time 28 hrs
Staphylococcus aureus [23] = assay: Antibacterial activity against stationary phase of Methicillin-resistant Staphylococcus aureus ATCC 33591 assessed as log reduction in bacterial colonies at 4.5 uM incubated for 12 hrs in broth solution followed by incubation on agar plate for 48 hrs by spot plating method; type: functional; conditions: time 60 hrs
Cell membrane [24] = assay: Induction of cytoplasmic membrane permeabilization in Bacillus subtilis assessed as increase in fluorescence intensity at 10 uM measured for 30 to 40 mins by Propidium iodide staining based fluorescence analysis; type: subcellular; conditions: time 30-40 min
Enterococcus [25] = assay: Antibacterial activity against Vancomycin-resistant Enterococci NR30903 assessed as inhibition of bacterial growth incubated for 18 to 24 hrs by CLSI microbroth dilution method; type: functional; conditions: time 18-24 hrs
Enterococcus [26] = assay: Bactericidal activity against Vancomycin-resistant Enterococci assessed as log reduction in bacterial colonies at MIC incubated for 24 hrs in broth solution followed by culturing for 24 hrs on agar plate by spot plating method; type: functional; conditions: time 48 hrs
Cell membrane [27] = assay: Induction of cytoplasmic membrane depolarization in Bacillus subtilis assessed as increase in fluorescence intensity at 10 uM measured for 35 to 40 mins by DiSC3(5) dye based fluorescence analysis; type: subcellular; conditions: time 35-40 min
Staphylococcus aureus [28] = assay: Antibacterial activity against Vancomycin-resistant Staphylococcus aureus 4 assessed as inhibition of bacterial growth incubated for 18 to 24 hrs by CLSI microbroth dilution method; type: functional; conditions: time 18-24 hrs
Staphylococcus aureus [29] = assay: Potency index, ratio of Vancomycin MIC to test compound MIC for antibacterial activity against Vancomycin-resistant Staphylococcus aureus 1; type: functional
Cell membrane [30] = assay: Induction of cytoplasmic membrane permeabilization in Methicillin-resistant Staphylococcus aureus ATCC 33591 assessed as increase in fluorescence intensity at 10 uM measured for 30 to 40 mins by Propidium iodide staining based fluorescence analysis; type: subcellular; conditions: time 30-40 min
Staphylococcus aureus [31] = assay: Bactericidal activity against methicillin-resistant Staphylococcus aureus ATCC 33591 assessed as log reduction in bacterial colonies at 2XMIC incubated for 6 hrs in broth solution followed by culturing for 24 hrs on agar plate by spot plating method; type: functional; conditions: time 30 hrs

For `CCCCCCCCCCNC(=O)C[N+](C)(C)CCCNC(=O)c1ccc(CN[C@@]2(C)C[C@H](O[C@H]3[C@H](Oc4c5cc6cc4Oc4ccc(cc4Cl)[C@@H](O)[C@@H](NC(=O)[C@@H](CC(C)C)NC)C(=O)N[C@@H](CC(N)=O)C(=O)N[C@H]6C(=O)N[C@H]4C(=O)N[C@H](C(=O)N[C@H](C(=O)O)c6cc(O)cc(O)c6-c6cc4ccc6O)[C@H](O)c4ccc(c(Cl)c4)O5)O[C@H](CO)[C@@H](O)[C@@H]3O)O[C@@H](C)[C@H]2O)cc1`, the Activity (Cell membrane [1]) was “Active”, the MIC (Staphylococcus aureus [2]) was 0.9 µM and the MIC (Staphylococcus aureus [3]) was 0.9 µM. For the same compound, the hemolysis at 1 h, 250 µM [4] was 1%, the survival at 336 h [5] was 100% and the HC50 at 1 h [6] was > 250 µM. The Activity (Staphylococcus aureus [7]) was 1.6 log10CFU/ml, the Activity (Staphylococcus aureus [8]) was 3.3 log10CFU/ml and the Activity (Cell membrane [9]) was “Active”. The Activity [10] was 25%, the Activity (Staphylococcus aureus [11]) was 7 log10CFU/ml and the Activity [12] was 20.7 mg/dL. It also gave an Activity (Staphylococcus aureus [13]) of 2 log10CFU/ml, an MIC (Staphylococcus aureus [14]) of 0.9 µM and an Activity [15] of 62.25 U/L. The Activity [16] was 0.38 mg/dL, the inhibition (Bacillus subtilis) was “Active” and the Activity (Cell membrane [17]) was 5%. It also gave an Activity (Staphylococcus aureus [18]) of 0.8 log10CFU/ml, a Ratio (Staphylococcus aureus [19]) of 1384 and a Ratio (Enterococcus [20]) of 1384. The MIC (Enterococcus [21]) was 3.6 µM, the Activity (Staphylococcus aureus [22]) was 3 log10CFU/ml and the Activity (Staphylococcus aureus [23]) was 1.4 log10CFU/ml. The Activity (Cell membrane [24]) was “Active”, the MIC (Enterococcus [25]) was 0.45 µM and the Activity (Enterococcus [26]) was 0.7 log10CFU/ml. For the same compound, the Activity (Cell membrane [27]) was “Active”, the MIC (Staphylococcus aureus [28]) was 0.45 µM and the Ratio (Staphylococcus aureus [29]) was 1384. For the same compound, the Activity (Cell membrane [30]) was “Active” and the Activity (Staphylococcus aureus [31]) was 4.3 log10CFU/ml.

— ChEMBL document CHEMBL5223082, “Alkyl-Aryl-Vancomycins: Multimodal Glycopeptides with Weak Dependence on the Bacterial Metabolic State” (J Med Chem, 2021)
